Marks after values point to notes of the source that are not given here.
Columns and labels:
caMC4R [1] = assay: Intracellular cAMP signaling (radioimmunoassay); format: cell-based, topmouth culter (Culter alburnus); details: for stimulation of intracellular cAMP, in words / EC50 / Rmax (cAMP): HEK293T cells; for EC50: cAMP RIA; for EC50 / Rmax (cAMP): mean ± SEM of at least three independent experiments; for Rmax (cAMP): hMC4R = 100
caMC4R [2] = assay: Competitive ligand binding (125I-NDP-MSH displacement); details: displacement of 125I-NDP-MSH; for IC50: HEK293T cells, mean ± SEM of at least three independent experiments

EC50 (caMC4R [1]; caMC4R) [nM]	IC50 (caMC4R [2]) [nM]	Compound	EC50 and Rmax compared with hMC4R, in words (caMC4R [1]; caMC4R versus hMC4R, cAMP)	stimulation of intracellular cAMP, in words (caMC4R [1]; caMC4R)	Rmax (cAMP) (caMC4R [1]; caMC4R)	allosteric agonism, in words (caMC4R [1]; caMC4R, concluded from binding and cAMP data)	binding affinity, in words (caMC4R [2])
75.7 ± 10.6		O=C(N[C@H](Cc1ccc(Cl)cc1)C(=O)N1CCC(Cn2cncn2)(C2CCCCC2)CC1)[C@H]1Cc2ccccc2CN1 [THIQ, N-[(3R)-1,2,3,4-Tetrahydroisoquinolinium-3-ylcarbonyl]-(1R)-1-(4-chlorobenzyl)-2-[4-cyclohexyl-4-(1H-1,2,4-triazol-1-ylmethyl)piperidin-1-yl]-2-oxoethylamine]	EC50 was significantly increased and Rmax was significantly decreased	dose-dependently increased intracellular cAMP levels	39.73 ± 1.37^b %	not an allosteric agonist at caMC4R	able to displace the ^125I-NDP-MSH bound with caMC4R
5.76 ± 1.62	442 ± 65.4	CSCC[C@H](NC(=O)[C@H](CCCNC(=N)N)NC(=O)[C@H](Cc1ccc(O)cc1)NC(=O)[C@@H]1CCCN1C(=O)CNC(=O)[C@H](CCC(=O)O)NC(=O)[C@H](CC(=O)O)NC(=O)[C@H](CCCCN)NC(=O)[C@H](CCCCN)NC(=O)[C@H](CCC(=O)O)NC(=O)[C@H](C)N)C(=O)N[C@@H](CCC(=O)O)C(=O)N[C@@H](Cc1c[nH]cn1)C(=O)N[C@@H](Cc1ccccc1)C(=O)N[C@@H](CCCNC(=N)N)C(=O)N[C@@H](Cc1c[nH]c2ccccc12)C(=O)NCC(=O)N[C@@H](CO)C(=O)N1CCC[C@H]1C(=O)N1CCC[C@H]1C(=O)N[C@@H](CCCCN)C(=O)N[C@@H](CC(=O)O)C(=O)O [β-MSH, β-melanocyte-stimulating hormone]		dose-dependently increased intracellular cAMP levels	167.74 ± 27.91%		significantly higher affinity to β-MSH than hMC4R
0.44 ± 0.24	4.87 ± 1.8	[Nle^4, D-Phe^7]-α-MSH [NDP-MSH]		dose-dependently increased intracellular cAMP levels	84.48 ± 8.28%		

Source: PMC7456811, “Regulation of Melanocortin-4 Receptor Pharmacology by Two Isoforms of Melanocortin Receptor Accessory Protein 2 in Topmouth Culter (Culter alburnus)” (Frontiers in Endocrinology, 2020)
